Experimental data: PMC12330940, “Targeting the MDM2‐MDM4 interaction interface reveals an otherwise therapeutically active wild‐type p53 in colorectal cancer” (Molecular Oncology, 2025)
Ends that are not written are not given here.

Legend:
p21 = details: cited from earlier work
Source text: P21 has also shown anti‐apoptotic activity, which could contribute to antagonizing the p53‐mediated apoptotic response.

human MDM2 = human MDM2 (Homo sapiens, UniProt Q00987); assay: in vitro affinity to MDM2 (dissociation constant); details: Scramble3S with spread ± 0.028, binding method not described
human MDM2, sequence (Q00987 whole entry): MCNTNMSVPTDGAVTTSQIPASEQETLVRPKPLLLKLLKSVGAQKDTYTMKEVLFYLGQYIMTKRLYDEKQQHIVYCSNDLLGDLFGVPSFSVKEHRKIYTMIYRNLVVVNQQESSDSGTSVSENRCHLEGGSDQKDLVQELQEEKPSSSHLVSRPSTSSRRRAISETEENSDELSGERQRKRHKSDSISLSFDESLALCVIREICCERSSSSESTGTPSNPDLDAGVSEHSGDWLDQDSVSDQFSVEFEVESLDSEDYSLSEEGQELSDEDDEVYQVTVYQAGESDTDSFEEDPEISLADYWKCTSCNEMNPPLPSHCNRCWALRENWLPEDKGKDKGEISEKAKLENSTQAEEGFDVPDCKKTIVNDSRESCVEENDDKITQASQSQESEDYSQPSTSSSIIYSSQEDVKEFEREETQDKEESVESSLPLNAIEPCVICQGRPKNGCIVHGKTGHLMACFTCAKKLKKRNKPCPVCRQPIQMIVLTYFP

[1] = tested on: p21 mRNA in HCT116 xenograft tumors; assay: p21 mRNA RT-qPCR in xenograft tumors; assay type: in vivo, mouse; details: n Pep3 = 3, n Pep3S = 5
Experimental: (§1) Gene expression was evaluated 48 h after treatment using quantitative real‐time PCR (7900HT Fast; Applied Biosystems, Foster City, CA, USA). RNA extraction was performed using TRIzol® Reagent (Invitrogen, Waltham, MA, USA). RNA (500/1000 ng from cells or mice, respectively) was reverse transcribed with SMART MMLV Reverse Transcriptase (Takara, Shiga, Japan) and subjected to PCR amplification using the SensiMix SYBR Lox‐ROX Kit (Meridian Bioscience, Cincinnati, OH, USA).
Animal studies obtained ethical approval from the Ministry of Health (Protocol N° 79/2023‐PR) and were conducted conforming to the institutional guidelines in compliance with named Italian legislation (DL N116, GU, suppl. 40, 18‐2‐1992). Inbred BALB/c nude mice (CAnN.Cg‐Foxn1^nu/J) obtained from the CNR‐IBBC‐EMMA‐Infrafrontier animal facility were housed in two per cage in the CNR‐IBBC‐EMMA‐Infrafrontier animal house. All animals were housed under controlled lighting conditions (daily light period, 07.00–19.00 h) at 20 ± 2° C, with ad libitum access to food (Emma 23, Mucedola, Settimo Milanese, Italy) and chlorinated filtered water. […] Tumor growth was followed and analyzed by luciferase activity over time. […] Bioluminescence acquisitions were performed with a Hybrid OI/CT system (MILabs, Houten, The Netherlands), and the images were analyzed using MILABS‐OI‐PP software. […]

[2] = tested on: human p53 pathway target genes in HCT116 cells; assay: RT2 Profiler PCR Array Human p53 signaling pathway, HCT116; assay type: cell-based
Experimental: (§2) For human p53 signaling pathway analysis, the RT^2 Profiler PCR Array 384 well ‘Human p53 signaling pathway’ was used, following the manufacturer's instructions (Qiagen, Venlo, The Netherlands). Differences of ≥ 1.3‐fold were used as […] criteria. The hsa‐miR‐34a expression was analyzed using the TaqMan™ MicroRNA Assay (Thermo). The results were normalized to those obtained using snRNA RNU6B. Common targets of p53 and miR‐34a were evaluated using miRGator v3.0, miRTarBase, and TargetScanHuman.

[3] = ref [20], cited from earlier work
Source text: To test Pep3S's tumor‐suppressive properties, we focused on colorectal cancer (CRC) cell lines. The frequency of the wild‐type (wt) p53 gene in CRC is approximately 40%, which offers a potential window for the therapeutic application of p53‐reactivating molecules. […] BIK levels were increased by Pep3S. […] To understand the molecular pathways underlying Pep3S activity, we analyzed differentially expressed genes (DEGs) by Pep3S and Pep3 compared to a mix of Scramble3 and Scramble3S in HCT116 cells using a p53‐transcriptional array containing 80 validated targets of the human p53 pat ...

p21 mRNA in HCT116 cells = assay: p21 mRNA RT-qPCR in HCT116; assay type: cell-based, human; details: HCT116, 48 h; three independent experiments
Experimental: as §1

[4] = tested on: SESN2, IGF1R, STAT1 mRNA in HCT116 cells; assay: SESN2, IGF1R, STAT1 mRNA RT-qPCR in HCT116; assay type: cell-based, human; details: HCT116, 48 h
Experimental: as §1

p21 mRNA in LoVo cells = assay: p21 mRNA RT-qPCR in LoVo; assay type: cell-based, human; details: 48 h, three independent experiments
Experimental: as §1

HCT116 cells (wt-p53) = assay: PrestoBlue viability assay, 2D HCT116; assay type: cell-based, human; details: 2D HCT116, 96 h, three independent experiments
Source text: (§3) Human colorectal carcinoma cells HCT116 wt‐p53 (RRID: CVCL_0291) were purchased from Sigma‐Aldrich (Darmstadt, Germany). HCT116 exon two knockout TP53 (hereafter p53^−/−) were obtained from Vogelstein's Lab, LoVo (Johns Hopkins University, Baltimore, MD, USA) (RRID: CVCL_0399) from Vitiani's lab (Istituto Superiore di Sanità, Roma, Italy). HCT116 and LoVo cells were maintained in DMEM low glucose (Sigma‐Aldrich) supplemented with 10% FBS (Gibco™, Walthman, MA, USA), 1% penicillin–streptomycin (Sigma‐Aldrich), 1% L‐glutamine (Sigma‐Aldrich) at 37 °C, 5% CO2. Lymphoblastoid cells from healthy donors (LCLs) were grown in RPMI‐1640 (Sigma‐Aldrich), supplemented with 15% FBS (Gibco™), 1% penicillin–streptomycin (Sigma‐Aldrich), 1% L‐glutamine (Sigma‐Aldrich). Primary human myoblasts (Lonza, Basel, Switzerland) were grown in SkGM‐2 medium (Lonza). Cell lines were maintained at 37 °C, 5% CO2.
Treatments (0.1% DMSO, 10 μM all peptides, 20 μM cisplatin, 10 μM Nutlin‐3a (Sigma‐Aldrich)) were administered every other day. […]
Cell viability was monitored every other day using PrestoBlue™ HS Cell Viability Reagent (Thermo Fisher Scientific). The fluorescence signal was read at 45′ (for 2D) or 1 h (for spheroids) using a spectrophotometer plate reader (Varioskan™ LUX; Thermo Fisher Scientific). Fluorescence excitation/emission: 570/610 nm.

[5] = tested on: immortalized lymphoblastoid cells (LCLs) from healthy donors; assay: Viability assay of lymphoblastoid cells (LCLs); assay type: cell-based, human; details: 4 biological replicates, Pep3S 10 µM, Nutlin 2.5 and 10 µM
human myoblasts = assay: Proliferation of human myoblasts; assay type: cell-based; details: healthy human myoblasts
Source text: as §3

p53 = details: ref [4]; cited from earlier work
Source text: The extent to which these additional events could be attributed to the dissociated proteins MDM4 or MDM2 remains to be ascertained. Indeed, the potential persistence of MDM2 and MDM4 binding to p53 represents a unique feature of p53 reactivating molecules. […] This is probably mediated by the binding of MDM2 to p53, which, although with reduced efficiency, controls the p53 protein levels. In ad ...

miR-34a in HCT116 cells = assay: miR-34a expression RT-qPCR in HCT116; assay type: cell-based, human; details: HCT116, 48 h; two independent experiments
Experimental: as §2

[6] = tested on: p21 mRNA in shMDM4 HCT116 cells; assay: p21 mRNA in shMDM4 vs shLacZ HCT116; assay type: cell-based, human; details: doxycycline-inducible shMDM4 vs shLacZ HCT116, 48 h treatment
Experimental: ShMDM4 and shLacZ (as control) HCT116 (wt‐p53 and p53^−/−) cells were obtained by transfection of doxycycline‐inducible silencing plasmids using jetPRIME transfection reagent (Polyplus, Illkirch‐Graffenstaden, France). Cells were maintained in DMEM low glucose (Sigma‐Aldrich) supplemented with 10% FBS (Gibco™) and 1% penicillin–streptomycin (Sigma‐Aldrich). After 24 h, the cells were selected with […] puromycin (Sigma‐Aldrich). Silencing was induced with 1 μg·mL^−1 doxycycline.
as §1

miR-34a in LoVo cells = assay: miR-34a expression RT-qPCR in LoVo; assay type: cell-based, human; details: 48 h, two independent experiments
Experimental: as §2

[7] = tested on: p21 mRNA in immortalized lymphoblastoid cells (LCLs) from healthy donors; assay: p21 mRNA RT-qPCR in lymphoblastoid cells; assay type: cell-based, human; details: 48 h
Source text: as §3, §1

[8] = comparative analysis, miRGator v3.0, miRTarBase, TargetScanHuman
[9] = heat map of DEGs modulated by Pep3 only

Q: Which p21 levels (p21; ref [21]) does the source give for `Cc1ccnc(NC(c2cccc(Cl)c2Cl)c2ccc3cccnc3c2O)c1` (centres unmarked) [MMRi64] here?
A: minimal induction of p21 followed by its strong downregulation

Q: For VAIKF [Scramble3S], which Kd (human MDM2) is on record?
A: 0.447 nM

Q: Which results are given for Ac-KEIQLVIKVFIA-NH2 [Pep3]?
A: p21 mRNA levels [1]: Although less severe, Pep3 caused a similar decrease; shared DEGs varying significantly between Pep3 and Pep3S ([2]; HCT116): 11/16; p21 levels in p53 array ([2]; HCT116, p53 array): not significantly altered; downregulated DEGs that are miR-34a targets, common to both peptides [2, 8]: 8 of the 10; uniquely downregulated DEGs that are miR-34a targets [2, 8]: 4/7; ADGRB1 expression [2, 9]: 0.64; BAX expression [2, 9]: 0.55; EGFR expression [2, 9]: 0.50; FASLG expression [2, 9]: 3.64; MCL1 expression [2, 9]: 0.59; NFKB1 expression [2, 9]: 0.51; PRKCA expression [2, 9]: 0.53; PTEN expression [2, 9]: 0.59; DEGs unique to the peptide ([2]; vs Scramble mix, HCT116): 8/33; mediators of pro-apoptotic activity ([3]; PIG3 and BIK): mediated by the activation of the pro‐oxidant p53‐targets PIG3 and BIK; IC50 ([3]; compared with Pep3S IC50, cell line not given): 10000 nM; pro-apoptotic activity linked to oxidative stress [3]: linked to the activation of an oxidative stress response; p21 mRNA levels (p21 mRNA in HCT116 cells): Although less severe, Pep3 caused a similar decrease; Kd (human MDM2): 0.245 ± 0.029 nM; DEG mRNA levels by RT-qPCR ([4]; SESN2, IGF1R, STAT1, two independent experiments): confirmed the downregulation of some of these DEGs; p21 mRNA levels (p21 mRNA in LoVo cells): Although less severe, Pep3 caused a similar decrease

Q: For KVFIA [Pep3S], which Kd (human MDM2) is on record?
A: 0.152 ± 0.007 nM

Q: And the IC50 (HCT116 cells (wt-p53))?
A: 5540 nM

Q: What about the cell proliferation [5] of the same compound?
A: ineffective in reducing p21 levels and cell proliferation

Q: What about the cell proliferation (human myoblasts) of the same compound?
A: did not alter cell proliferation

Q: What does the source list for `COc1ccc(C2=N[C@@H](c3ccc(Cl)cc3)[C@@H](c3ccc(Cl)cc3)N2C(=O)N2CCNC(=O)C2)c(OC(C)C)c1` [Nutlin‐3a]?
A: p53 levels (p53): increase in p53 levels; miR-34a levels (miR-34a in HCT116 cells): induced miR‐34a expression; p21 mRNA levels (p21 mRNA in HCT116 cells): strongly induced p21 expression; effect of MDM4 silencing on p21 regulation [6]: ineffective in the upregulation mediated by Nutlin‐3a; levels of some p53 targets by RT-qPCR ([4]; Fig. S3C,D): opposite activity by upregulating the levels of some of these targets; SESN2 mRNA level ([4]; two independent experiments): strong upregulation of SESN2; miR-34a levels (miR-34a in LoVo cells): induced miR‐34a expression; cell proliferation [5]: highly potent; p21 levels [7]: highly potent; p21 mRNA levels (p21 mRNA in LoVo cells): strongly induced p21 expression

Q: Which p21 protein levels (p21; ref (43)) does the source give for `OCc1ccc(-c2ccc(-c3ccc(CO)s3)o2)s1` [RITA] here?
A: caused the downregulation of p21 protein levels
